Turning to `CS(=O)(=O)N1CC2(CCN(C(=O)Nc3ccc(-c4ccccc4)nc3)CC2)c2ccccc21` [Compound 114, 1-methylsulfonyl-N-(2-phenyl-5-pyridyl)spiro[indoline-3,4′-piperidine]-1′-carboxamide], the melting point (as a rule, the temperature, or range, at which the solid turns liquid) came out at 224 °C.

`CCS(=O)(=O)N1CC2(CCN(C(=O)Nc3cn(-c4ccccc4)cn3)CC2)c2ccccc21.Cl` came in with a melting point of 139 to 140 °C.

In turn, `CCS(=O)(=O)N1CC2(CCN(C(=O)Nc3cn(-c4cccc(F)c4)cn3)CC2)c2ccccc21` [Compound 203, 1-ethylsulfonyl-N-[1-(3-fluorophenyl)imidazol-4-yl]spiro[indoline-3,4′-piperidine]-1′-carboxamide] returned a melting point of 200 to 202 °C.

For the compound `CS(=O)(=O)N1CC2(CCN(C(=O)Nc3cn(-c4cccc(Cl)c4)cn3)CC2)c2ccccc21` [Compound 127, N-[1-(3-chlorophenyl)imidazol-4-yl]-1-methylsulfonylspiro[indoline-3,4′-piperidine]-1′-carboxamide], the melting point was 232 to 234 °C.

Take `CC(=O)c1ccc(NC(=O)N2CCC3(CC2)CN(S(N)(=O)=O)c2ccccc23)cc1` [Compound 300, N-(4-acetylphenyl)-1-sulfamoylspiro[indoline-3,4′-piperidine]-1′-carboxamide]: the melting point fell in the range of 233 to 236 °C.

For the compound `COc1cccc(-n2cnc(NC(=O)N3CCC4(CC3)CN(S(C)(=O)=O)c3ccccc34)c2)c1` [Compound 126, N-[1-(3-methoxyphenyl)imidazol-4-yl]-1-methylsulfonylspiro[indoline-3,4′-piperidine]-1′-carboxamide], the melting point fell in the range of 216 to 218 °C.

The compound `CCS(=O)(=O)N1CC2(CCN(C(=O)Nc3cnc(-c4nncs4)cn3)CC2)c2ccc(F)cc21` [Compound 154, 1-ethylsulfonyl-6-fluoro-N-[5-(1,3,4-thiadiazol-2-yl)-2-pyrazinyl]spiro[indoline-3,4′-piperidine]-1′-carboxamide] came in with a melting point of 228 to 230 °C.

For `CN(C)C(=O)N1CC2(CCN(C(=O)Nc3nnc(-c4ccccc4)s3)CC2)c2ccccc21` [Compound 800, 1-Dimethylcarbamoyl-N-(5-phenyl-1,3,4-thiadiazol-2-yl)spiro[indoline-3,4′-piperidine]-1′-carboxamide], the melting point is 267 °C.

On to `CS(=O)(=O)N1CC2(CCN(C(=O)Nc3nc(-c4ccccc4)co3)CC2)c2ccccc21` [Compound 119, 1-methylsulfonyl-N-(4-phenyloxazol-2-yl)spiro[indoline-3,4′-piperidine]-1′-carboxamide], for which the melting point is 189 to 192 °C.

`CS(=O)(=O)N1CC2(CCN(C(=O)Nc3cnc(-c4nncs4)cn3)CC2)c2ccccc21` [Compound 146, 1-methylsulfonyl-N-[5-(1,3,4-thiadiazol-2-yl)-2-pyrazinyl]spiro[indoline-3,4′-piperidine]-1′-carboxamide] yielded a melting point of 247 to 249 °C.

Take `CS(=O)(=O)N1CC2(CCN(C(=O)Nc3cnc(-c4ccccc4)cn3)CC2)c2cc(F)ccc21` [Compound 202, 5-fluoro-1-methylsulfonyl-N-(5-phenyl-2-pyrazinyl)spiro[indoline-3,4′-piperidine]-1′-carboxamide]: the melting point lay in the range of 215.5 to 215.8 °C.

For `CCc1nc(-c2ccc(NC(=O)N3CCC4(CC3)CN(S(C)(=O)=O)c3ccccc34)cc2)cs1` [Compound 107, N-[4-(2-ethyl-4-thiazolyl)phenyl]-1-methylsulfonylspiro[indoline-3,4′-piperidine]-1′-carboxamide], the melting point was in the range of 242 to 242.5 °C.

Consider `CS(=O)(=O)N1CC2(CCN(C(=O)Nc3cnc(-c4ccccc4Cl)cn3)CC2)c2ccccc21` [Compound 103, N-[5-(2-chlorophenyl)-2-pyrazinyl]-1-methylsulfonylspiro[indoline-3,4′-piperidine]-1′-carboxamide], for which the melting point lay within 197 to 199 °C.

In turn, `COc1cccc2oc(NC(=O)N3CCC4(CC3)CN(S(C)(=O)=O)c3ccccc34)nc12` [Compound 128, N-(4-methoxybenzoxazol-2-yl)-1-methylsulfonylspiro[indoline-3,4′-piperidine]-1′-carboxamide] came in with a melting point of 195 to 199 °C.

Regarding `CCS(=O)(=O)N1CC2(CCN(C(=O)Nc3cnc(-c4ncns4)cn3)CC2)c2ccccc21` [Compound 153, 1-ethylsulfonyl-N-[5-(1,2,4-thiadiazol-5-yl)-2-pyrazinyl]spiro[indoline-3,4′-piperidine]-1′-carboxamide], the melting point was in the range of 211 to 214 °C.

The compound `CS(=O)(=O)N1CC2(CCN(C(=O)Nc3cnc(-c4cccc(F)c4)cn3)CC2)c2ccccc21` [Compound 101, N-[5-(3-fluorophenyl)-2-pyrazinyl]-1-methylsulfonylspiro[indoline-3,4′-piperidine]-1′-carboxamide] registered a melting point of 203 to 205 °C.

`CCS(=O)(=O)N1CC2(CCN(C(=O)Nc3cnc(-c4nncs4)cn3)CC2)c2cc(F)ccc21` [Compound 155, 1-ethylsulfonyl-5-fluoro-N-[5-(1,3,4-thiadiazol-2-yl)-2-pyrazinyl]spiro[indoline-3,4′-piperidine]-1′-carboxamide] had a melting point of 223 to 224 °C.

Regarding `CCS(=O)(=O)N1CC2(CCN(C(=O)Nc3cc(-c4ccc(Cl)cc4)on3)CC2)c2ccccc21` [Compound 143, N-[5-(4-chlorophenyl)isoxazol-3-yl]-1-ethylsulfonylspiro[indoline-3,4′-piperidine]-1′-carboxamide], the melting point fell in the range of 178.3 to 178.5 °C.

On to `CS(=O)(=O)N1CC2(CCN(C(=O)Nc3cc(-c4ccccc4)no3)CC2)c2ccccc21`, for which the melting point was 235 to 237 °C.

The compound `CS(=O)(=O)N1CC2(CCN(C(=O)Nc3ncc(-c4ccccc4)cn3)CC2)c2ccccc21` [Compound 115, 1-methylsulfonyl-N-(5-phenyl-2-pyrimidinyl)spiro[indoline-3,4′-piperidine]-1′-carboxamide] yielded a melting point of 122 to 123 °C.

In turn, `Cc1ccc2nc(NC(=O)N3CCC4(CC3)CN(S(C)(=O)=O)c3ccccc34)cnc2c1` [Compound 130, 1-methylsulfonyl-N-(6-methylquinoxalin-2-yl)spiro[indoline-3,4′-piperidine]-1′-carboxamide] returned a melting point of 224 to 225 °C.

`CCS(=O)(=O)N1CC2(CCN(C(=O)Nc3cnc(-c4nncs4)cn3)CC2)c2ccccc21` [Compound 152, 1-ethylsulfonyl-N-[5-(1,3,4-thiadiazol-2-yl)-2-pyrazinyl]spiro[indoline-3,4′-piperidine]-1′-carboxamide] returned a melting point of 193 to 194 °C.

`CS(=O)(=O)N1CC2(CCN(C(=O)Nc3cnc(-c4ccccc4)nc3)CC2)c2ccccc21` [Compound 113, 1-methylsulfonyl-N-(2-phenyl-5-pyrimidinyl)spiro[indoline-3,4′-piperidine]-1′-carboxamide] returned a melting point of 251 to 253 °C.

`CS(=O)(=O)N1CC2(CCN(C(=O)Nc3cnc(-c4ccccn4)cn3)CC2)c2ccccc21` [Compound 104, 1-methylsulfonyl-N-[5-(2-pyridyl)-2-pyrazinyl]spiro[indoline-3,4′-piperidine]-1′-carboxamide] showed a melting point of 234 to 235 °C.

Values taken from patent US6495559B2, “NPY Y5 receptor antagonists” (Merck & Co., Inc., priority 1998, dated 2002).
